Experimental data published in patent publication US10774053B2, “HIV protease inhibitors” (Gilead Sciences, Inc., priority 2017, dated 2020).

test system: HIV-1 (IIIB) in MT-4 cells; test: microbe, parasite or virus in culture; format: cell-based; details: Human immunodeficiency virus 1, IIIB, MT4, MT-4 cells, HIV-1; read-out: MT4 EC50

In order of rising EC50:
1. CC(C)(C)C[C@]1(c2ccc3nc(C(F)F)ccc3c2)NC(=N)N([C@H](COC(=O)NC2(C(F)(F)F)CC2)c2ccc(Cl)c(-n3ncnc3C(F)F)c2)C1=O [Compound 354]  5.06 nM
2. CC(C)(C)C[C@]1(c2ccc(-c3cnn(CC(F)F)n3)cc2F)NC(=N)N([C@H](COC(=O)NC2(C(F)(F)F)CC2)c2ccc(Cl)c(-c3ncnn3C(F)F)c2)C1=O [Compound 151]  7.55 nM
3. CC(C)(C)C[C@]1(c2ccc(-c3cnn(C4CC4)c3)c(F)c2)NC(=N)N([C@H](COC(=O)NC2CC2(F)F)c2ccc(Cl)c(-n3ncnc3C(F)F)c2)C1=O (stereo partly shown) [Compound 298]  7.83 nM
4. CC(C)(C)C[C@]1(c2ccc(-c3cnn(C(F)F)c3)cc2)NC(=N)N([C@H](COC(=O)NC2(C)CC2)c2ccc(Cl)c(-n3cncn3)c2)C1=O [Compound 237]  8.79 nM
5. CC(C)(C)C[C@]1(c2ccc(-c3ccccn3)cc2)NC(=N)N([C@H](COC(=O)NC(C)(C)C)c2ccc(Cl)c(-n3ncnc3C(F)F)c2)C1=O [Compound 191]  9.69 nM
6. CC(C)(C)C[C@]1(c2ccc(-c3cnn(C(F)F)c3)cc2)NC(=N)N([C@H](COC(=O)NC2CC2(F)F)c2ccc(Cl)c(-n3ncnc3C(F)F)c2)C1=O (stereo partly shown) [Compound 211]  10.8 nM
7. CC(C)(C)C[C@]1(c2ccc(-c3ncccn3)cc2F)NC(=N)N([C@H](COC(=O)NC2(C(F)(F)F)CC2)c2ccc(Cl)c(-n3ncnc3C(F)F)c2)C1=O [Compound 197]  11.2 nM
8. CC(C)(C)C[C@]1(c2ccc(-c3ncns3)cc2F)NC(=N)N([C@H](COC(=O)NC2(C(F)(F)F)CC2)c2ccc(Cl)c(-n3ncnc3C(F)F)c2)C1=O [Compound 284]  11.4 nM
9. CC(C)(C)C[C@]1(c2ccc(-c3cnn(S(C)(=O)=O)c3)c(F)c2)NC(=N)N([C@H](COC(=O)NCC(F)(F)F)c2ccc(Cl)c(-n3ncnc3C(F)F)c2)C1=O [Compound 300]  12.5 nM
10. CC(C)(C)C[C@]1(c2ccc(-c3cnn(C4CC4)c3)c(F)c2)NC(=N)N([C@H](COC(=O)NCC(F)(F)F)c2ccc(Cl)c(-n3ncnc3C(F)F)c2)C1=O [Compound 307]  12.7 nM
11. CC(C)(C)C[C@]1(c2ccc(-c3ncc(F)cn3)cc2)NC(=N)N([C@H](COC(=O)NC2(C(F)(F)F)CC2)c2ccc(Cl)c(-n3ncnc3C(F)F)c2)C1=O [Compound 275]  12.8 nM
12. CC(C)(C)C[C@]1(c2ccc(-c3cnn(C(F)F)c3)c(F)c2)NC(=N)N([C@H](COC(=O)NCC(C)(F)F)c2ccc(Cl)c(-n3ncnc3C(F)F)c2)C1=O [Compound 299]  13 nM
13. CC(C)(C)C[C@]1(c2ccc(-n3nccn3)c(F)c2)NC(=N)N([C@H](COC(=O)NC2(C(F)(F)F)CC2)c2ccc(Cl)c(-n3ncnc3C(F)F)c2)C1=O [Compound 309]  13.4 nM
14. C[C@H](NC(=O)OC[C@H](c1ccc(Cl)c(-n2ncnc2C(F)F)c1)N1C(=N)N[C@](CC(C)(C)C)(c2ccc(-c3cn(C4CC4)nn3)cc2)C1=O)C(F)(F)F [Compound 233]  13.6 nM
15. C[C@H](C(=O)NC[C@H](c1ccc(Cl)c(-c2ncnn2C(F)F)c1)N1C(=N)N[C@](CC(C)(C)C(F)(F)F)(c2ccc(-c3cnn(C4CC4)n3)cc2)C1=O)C(F)(F)F [Compound 161]  14.3 nM
16. C[C@@H](NC(=O)OC[C@H](c1ccc(Cl)c(-n2ncnc2C(F)F)c1)N1C(=N)N[C@](CC(C)(C)C)(c2ccc(-c3cnn(C(F)F)c3)cc2)C1=O)C(F)F [Compound 343]  17 nM
17. CC(C)(C)C[C@]1(c2ccc(-c3cnn(C4CC4)c3)cc2)NC(=N)N([C@H](COC(=O)NC2(C(F)(F)F)CC2)c2ccc(Cl)c(-n3cncn3)c2)C1=O [Compound 319]  17.8 nM
18. CC(C)(C)C[C@]1(c2ccc(-c3ccc(S(C)(=O)=O)cc3)c(F)c2)NC(=N)N([C@H](COC(=O)NC2(C(F)(F)F)CC2)c2ccc(Cl)c(-n3ncnc3C(F)F)c2)C1=O [Compound 313]  19.5 nM
19. Cn1nccc1-c1ccc([C@@]2(CC(C)(C)C)NC(=N)N([C@H](COC(=O)NC3(C(F)(F)F)CC3)c3ccc(Cl)c(-n4ncnc4C(F)F)c3)C2=O)cc1 [Compound 205]  20.2 nM
20. CC(C)(C)C[C@]1(c2ccc(C#N)cc2)NC(=N)N([C@H](COC(=O)NC2(C(F)(F)F)CC2)c2ccc(Cl)c(-n3ncnc3C(F)F)c2)C1=O [Compound 280]  20.7 nM
21. CC(C)(C)C[C@]1(c2ccc(-c3cnn(C(F)F)c3)cc2)NC(=N)N([C@H](COC(=O)N2CC(F)(F)C2)c2ccc(Cl)c(-c3ncn[nH]3)c2)C1=O [Compound 67]  20.8 nM
22. [H]/N=C1\N[C@](CC(C)(C)C)(c2ccc(-c3cnn(C(F)F)c3)cc2F)C(=O)N1[C@H](COC(=O)NC1CC1)c1ccc(Cl)c(-c2ncccc2C)c1 [Compound 12]  22.2 nM
23. Cc1ncsc1-c1ccc([C@@]2(CC(C)(C)C)NC(=N)N([C@H](COC(=O)NC3(C(F)(F)F)CC3)c3ccc(Cl)c(-n4ncnc4C(F)F)c3)C2=O)c(F)c1 [Compound 200]  26.2 nM
24. CC(C)(C)C[C@]1(c2ccc(-c3cnn(C(F)F)c3)cc2)NC(=N)N([C@H](COC(=O)NC2(C(F)(F)F)CC2)c2ccc(Cl)c(-n3ncnc3C3CC3)c2)C1=O [Compound 253]  28.1 nM
25. CC(C)(C)C[C@]1(c2ccc(-c3cnn(C(F)F)c3)cc2)NC(=N)N([C@H](COC(=O)NC2(C)CC2)c2cccc(-n3ncnc3C(F)F)c2)C1=O [Compound 375]  30.8 nM
26. CC(C)(CC#N)C[C@]1(c2ccc(-c3cnn(C4CC4)c3)cc2)NC(=N)N([C@H](COC(=O)NC2(C(F)(F)F)CC2)c2ccc(Cl)c(-n3ncnc3C(F)F)c2)C1=O [Compound 362]  36.4 nM
27. CC(C)(C)C[C@]1(c2ccc(-c3cnn(C(F)F)c3)cc2)NC(=N)N([C@H](CO)c2ccc(Cl)c(-c3ncnn3C3CC3)c2)C1=O [Compound 46]  37.6 nM
28. CC(C)(C)C[C@]1(c2ccc(-c3cnn(C(F)F)c3)cc2)NC(=N)N([C@H](COC(=O)N2CC3(CC3)C2)c2ccc(Cl)c(-c3ncn[nH]3)c2)C1=O [Compound 87]  38.5 nM
29. CC(C)(C)C[C@]1(c2ccc(-c3cnn(C4CC4)c3)cc2)NC(=N)N([C@H](COC(=O)N2CC(F)(F)C2)c2ccc(Cl)c(-c3ncn[nH]3)c2)C1=O [Compound 77]  38.9 nM
30. CC(C)(C)C[C@]1(c2ccc(-c3ccsn3)cc2)NC(=N)N([C@H](COC(=O)NC2(C(F)(F)F)CC2)c2cccc(-n3ncnc3C(F)F)c2)C1=O [Compound 322]  39 nM
31. CC(C)(C)C[C@]1(c2ccc(-c3ncccn3)cc2F)NC(=N)N([C@H](COC(=O)NC2(C(F)(F)F)CC2)c2ccc(Cl)c(-c3ncn[nH]3)c2)C1=O [Compound 112]  40.4 nM
32. CC(C)(C)C[C@]1(c2ccc(C(F)(F)F)cc2)NC(=N)N([C@H](COC(=O)NC2(C(F)(F)F)CC2)c2ccc(Cl)c(-n3ncnc3C(F)F)c2)C1=O [Compound 373]  49.7 nM
33. [2H]C([2H])([2H])n1cnc(-c2cc([C@@H](COC(=O)NC(C)(C)C(F)F)N3C(=N)N[C@](CC4(C)CC4)(c4ccc(-c5cnn(C(F)F)c5)cc4)C3=O)ccc2Cl)n1 [Compound 98]  52 nM
34. CC(C)(C)C[C@]1(c2ccc(-c3cnn(C(F)F)c3)cc2)NC(=N)N([C@H](COC(=O)NC2(C)CC2)c2ccc(Cl)c(-n3cnnn3)c2)C1=O [Compound 266]  57.4 nM
35. CC(C)(C)C[C@]1(c2ccc(-c3cnn(C(F)F)c3)cc2)NC(=N)N([C@H](COC(=O)NC2CC2)c2ccc(Cl)c(-c3cc[nH]n3)c2)C1=O [Compound 24]  68.2 nM
36. CC(C)(C)C[C@]1(c2ccc(-c3cnn(C(F)F)c3)cc2)NC(=N)N([C@H](COC(=O)NC2CC2)c2ccc(Cl)c(-c3nc(Cl)c(Cl)[nH]3)c2)C1=O [Compound 23]  70.4 nM
37. CC(C)(C)C[C@]1(c2ccc(-c3cnn(C(F)F)c3)cc2)NC(=N)N([C@H](COC(=O)NC2(C(F)F)CC2)c2ccc(Cl)c(-c3ncn[nH]3)c2)C1=O [Compound 93]  105 nM
38. CC(C)(C)C[C@]1(c2ccc(-c3cnn(C(F)F)c3)cc2)NC(=N)N([C@H](COC(=O)N2CC3(CCO3)C2)c2ccc(Cl)c(-c3ncn[nH]3)c2)C1=O [Compound 92]  113 nM
39. CC(C)(C)C[C@]1(c2ccc(-c3cnn(C(F)F)c3)cc2)NC(=N)N([C@H](COc2ccc(F)cc2F)c2ccc(Cl)c(-n3ncnc3C(F)F)c2)C1=O [Compound 365]  143 nM
40. Cc1ncn(-c2cc([C@@H](COC(=O)NC3(C)CC3)N3C(=N)N[C@](CC(C)(C)C)(c4ccc(-c5cnn(C(F)F)c5)cc4)C3=O)ccc2Cl)n1 [Compound 238]  156 nM
41. CC(C)(C)C[C@]1(c2ccc(-c3cnn(C(F)F)c3)cc2)NC(=N)N([C@H](COC(=O)NC(C)(CO)CO)c2ccc(Cl)c(-c3ncn[nH]3)c2)C1=O [Compound 102]  196 nM
42. [H]/N=C1\N[C@](CC(C)(C)C)(c2ccc(-c3cnn(C(F)F)c3)cc2)C(=O)N1[C@H](COC(=O)NC1CC1)c1ccc(Cl)c(-c2nnc(C3CC3)s2)c1 [Compound 44]  246 nM
43. CC(C)(C)C[C@]1(c2ccc(-c3cnn(C(F)F)c3)cc2)NC(=N)N([C@H](COC(=O)NC2(C(F)(F)F)CC2)c2ccc(C#N)c(-c3ncnn3C(F)F)c2)C1=O [Compound 140]  266 nM
44. COc1ccc([C@@]2(CC(C)(C)C)NC(=N)N([C@H](COC(=O)N(C)C)c3ccc(Cl)c(-c4ccccn4)c3)C2=O)c(F)c1 [Compound 8]  277 nM
45. CC(C)(C)C[C@]1(c2ccc(-c3cnn(C(F)F)c3)cc2)NC(=N)N([C@H](COC(=O)NC2(C(F)(F)F)CC2)c2ccc(Cl)c(C#N)c2)C1=O [Compound 71]  324 nM
46. CN(C)C(=O)OC[C@H](c1ccc(Cl)c(-c2ncc(-c3ccccc3)o2)c1)N1C(=N)N[C@@](c2cc(F)cc(F)c2)(C2CC2)C1=O [Compound 4]  3620 nM

same assay, conditions: Human immunodeficiency virus 1, IIIB, MT4, read-out: MT4 EC50 (nM)

`[H]/N=C1\N[C@](CC(C)(C)C)(c2ccc(-c3cnn(C(F)F)c3)cc2F)C(=O)N1[C@H](COC(=O)NC1CC1)c1ccc(Cl)c(-c2ncccn2)c1` [Compound 14] gave an EC50 of 68.6 nM.

same assay, conditions: MT-4 cells, HIV-1; read-out: MT4 EC50

In order of falling EC50:
1. CC(C)(C)C[C@H]1C(=O)N([C@H](COC(=O)NC(C)(C)C(F)F)c2ccc(F)c(-c3ncnn3C(F)F)c2)C(=N)N1c1ccc(-c2cnn(C(F)F)c2)cc1 [Compound 124]  65.3 nM
2. CC(C)(C)C[C@]1(c2ccc(-c3cn(C4CC4)nn3)cc2)NC(=N)N([C@H](COC(=O)NC2(C(F)(F)F)CC2)c2ccc(Cl)c(-n3ncnc3C(F)F)c2)C1=O [Compound 232]  18.2 nM
